Assay results as given in US20180208605A1, “Substituted Aza Compounds as IRAK-4 Inhibitors” (AURIGENE DISCOVERY TECHNOLOGIES LIMITED, priority 2015, published 2018).
Structures can show the parent of a compound that is named as a salt.

Target: T1, recombinant IRAK-4 kinase (Homo sapiens, UniProt Q9NWZ3)
T1 construct: purchased Millipore, USA
T1 sequence (Q9NWZ3 1-460): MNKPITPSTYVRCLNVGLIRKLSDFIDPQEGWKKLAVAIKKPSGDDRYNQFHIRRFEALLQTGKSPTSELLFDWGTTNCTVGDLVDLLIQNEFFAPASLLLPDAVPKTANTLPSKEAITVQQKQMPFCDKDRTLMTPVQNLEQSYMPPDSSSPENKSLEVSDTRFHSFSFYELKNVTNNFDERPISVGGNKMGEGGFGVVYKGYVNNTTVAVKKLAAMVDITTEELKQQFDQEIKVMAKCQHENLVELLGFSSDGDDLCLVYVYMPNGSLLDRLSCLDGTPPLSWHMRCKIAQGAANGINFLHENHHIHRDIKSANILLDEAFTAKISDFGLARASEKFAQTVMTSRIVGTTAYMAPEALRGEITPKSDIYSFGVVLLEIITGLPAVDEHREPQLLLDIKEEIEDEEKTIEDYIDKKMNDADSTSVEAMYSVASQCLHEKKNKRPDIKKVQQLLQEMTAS
Experiment: IRAK-4 Biochemical Assay (TR-FRET, percent inhibition)
Details: TR-FRET, 20 μM ATP, 100 nM Biotin Histone H3; for inhibition at 0.1 µM: read-out: % inhibition of IRAK-4 @0.1 μM, compound at 0.1 μM; for inhibition at 1 µM: read-out: % inhibition of IRAK-4 @ 1 μM, compound at 1 μM
Description: Compounds were tested for their potential to inhibit IRAK-4 enzyme in a TR-FRET assay using recombinant IRAK-4 kinase from Millipore, USA. The assay buffer was 50 mM Tris-HCl pH 7.5, 20 mM MgCl2, 1 mM EGTA, 2 mM DTT, 3 mM MnCl2 and 0.01% Tween 20.5 ng of IRAK-4 kinase was used for the assay. After pre-incubation of enzyme with test compound for 30 minutes at room temperature, a substrate mixture containing 100 nM Biotin Histone H3 (Millipore, USA) and 20 μM ATP (Sigma, USA) was added and the reaction was incubated for 30 min. Post incubation, the reaction was stopped by the addition of stop mix containing 40 mM EDTA, 1 nM of Europium-Anti-Phospho-Histone H3 (Ser10) antibody (Perkin Elmer, USA) and 20 nM SureLight Allophycocyanin-Streptavidin (Perkin Elmer, USA). The fluorescence emission at 615 nm and 665 nm were measured at an excitation of 340 nm and the percent inhibition was estimated from the ratio of the fluorescence intensities [(F665/F615)×10000].

Row | Structure (SMILES) | inhibition at 0.1 µM [%] | inhibition at 1 µM [%]
1 | O=C(Nc1cc2sc(N3CCOCC3)nc2nc1N1CCCCC1)c1cnn2cccnc12 [Example 104, N-(2-morpholino-5-(piperidin-1-yl)thiazolo[4,5-b]pyridin-6-yl)pyrazolo[1,5-a]pyrimidine-3-carboxamide hydrochloride] | 95 | 97
2 | O=C(Nc1cc2sc(N3CCOCC3)nc2nc1N1CCCCC1)c1cccc(-n2cnc(CO)c2)n1 [Example 67, 6-(4-(hydroxymethyl)-1H-imidazol-1-yl)-N-(2-morpholino-5-(piperidin-1-yl)thiazolo[4,5-b]pyridin-6-yl)picolinamide] | 100 | 101
3 | Nc1ccc(-c2cccc(C(=O)Nc3cc4sc(N5CCOCC5)nc4nc3C3CC3)n2)cn1 [Example 51, 6′-amino-N-(5-cyclopropyl-2-morpholinothiazolo[4,5-b]pyridin-6-yl)-[2,3′-bipyridine]-6-carboxamide] | 98 | 
4 | Cc1ccc(C(=O)Nc2cc3sc(N4CCOCC4)nc3nc2N2CCCCC2)nc1-c1ccc(N)nc1 [Example 85, 6′-amino-3-methyl-N-(2-morpholino-5-(piperidin-1-yl)thiazolo[4,5-b]pyridin-6-yl)-[2,3′-bipyridine]-6-carboxamide] | 101 | 100
5 | O=C(Nc1cc2sc(N3CCOCC3)nc2nc1N1CCOCC1)c1cccc(N2CCC(O)C2)n1 (stereo not shown) [Example 76, N-(2,5-dimorpholinothiazolo[4,5-b]pyridin-6-yl)-6-(3-hydroxypyrrolidin-1-yl)picolinamide] | 92 | 97
6 | O=C(Nc1cc2sc(N3CCOCC3)nc2nc1N1CCCCC1)c1cccc(N2CCC[C@@H](O)C2)n1 [Example 30, (R)-6-(3-hydroxypiperidin-1-yl)-N-(2-morpholino-5-(piperidin-1-yl)thiazolo[4,5-b]pyridin-6-yl)picolinamide] | 98 | 99
7 | O=C(Nc1cc2sc(N3CCOCC3)nc2nc1N1CCC[C@@H](O)C1)c1cccc(N2CCC(O)CC2)n1 [Example 38, (R)-6-(4-hydroxypiperidin-1-yl)-N-(5-(3-hydroxypiperidin-1-yl)-2-morpholinothiazolo[4,5-b]pyridin-6-yl)picolinamide] | 98 | 99
8 | O=C(Nc1cc2sc(N3CCOCC3)nc2nc1N1CCCCC1)c1cccc(N2CCC(CCO)CC2)n1 [Example 35, 6-(4-(2-hydroxyethyl)piperidin-1-yl)-N-(2-morpholino-5-(piperidin-1-yl)thiazolo[4,5-b]pyridin-6-yl)picolinamide] | 92 | 95
9 | O=C(Nc1cc2oc(N3CCOCC3)nc2nc1N1CCCCC1)c1cnn2cccnc12 [Example 24, N-(2-morpholino-5-(piperidin-1-yl)oxazolo[4,5-b]pyridin-6-yl)pyrazolo[1,5-a]pyrimidine-3-carboxamide] | 97 | 97
10 | Nc1cccc(-c2nc(C(=O)Nc3cc4oc(N5CCOCC5)nc4nc3N3CCCCC3)co2)n1 [Example 93, 2-(6-aminopyridin-2-yl)-N-(2-morpholino-5-(piperidin-1-yl)oxazolo[4,5-b]pyridin-6-yl)oxazole-4-carboxamide] | 87 | 93
11 | NC(=O)C1CCN(c2cccc(C(=O)Nc3cc4sc(N5CCOCC5)nc4nc3N3CCCCC3)n2)CC1 [Example 82, 6-(4-carbamoylpiperidin-1-yl)-N-(2-morpholino-5-(piperidin-1-yl)thiazolo[4,5-b]pyridin-6-yl)picolinamide] | 93 | 98
12 | O=C(Nc1cc2sc(N3CCOCC3)nc2nc1N1CCCCC1)c1cncc(N2CCC(O)C2)n1 (stereo not shown) [Example 54, 6-(3-hydroxypyrrolidin-1-yl)-N-(2-morpholino-5-(piperidin-1-yl)thiazolo[4,5-b]pyridin-6-yl)pyrazine-2-carboxamide hydrochloride] | 93 | 97
13 | Cc1ccc(-c2nc3nc(N4CCOCC4)oc3cc2NC(=O)c2coc(-c3ccnc(C)c3)n2)nc1 [Example 14, N-(5-(5-methylpyridin-2-yl)-2-morpholinooxazolo[4,5-b]pyridin-6-yl)-2-(2-methylpyridin-4-yl)oxazole-4-carboxamide] | 99 | 100
14 | O=C(Nc1cc2sc(N3CCOCC3)nc2nc1N1CCCCC1)c1ccnc(N2CC[C@H](O)C2)n1 [Example 60, (S)-2-(3-hydroxypyrrolidin-1-yl)-N-(2-morpholino-5-(piperidin-1-yl)thiazolo[4,5-b]pyridin-6-yl)pyrimidine-4-carboxamide] | 88 | 94
15 | CCOC(=O)O[C@H]1CCN(c2cccc(C(=O)Nc3cc4sc(N5CCOCC5)nc4nc3N3CCCCC3)n2)C1 [Example 58, (S)-ethyl (1-(6-((2-morpholino-5-(piperidin-1-yl)thiazolo[4,5-b]pyridin-6-yl)carbamoyl)pyridin-2-yl)pyrrolidin-3-yl)carbonate] | 71 | 96
16 | Cc1cc(-c2ccc(C(=O)Nc3cc4sc(N5CCOCC5)nc4nc3N3CCCC(O)(CO)C3)o2)ccn1 (stereo not shown) [Example 5, N-(5-(3-hydroxy-3-(hydroxymethyl)piperidin-1-yl)-2-morpholinothiazolo[4,5-b]pyridin-6-yl)-5-(2-methylpyridin-4-yl)furan-2-carboxamide hydrochloride] | 98 | 99

Continued, values first:

Row | inhibition at 0.1 µM [%] | inhibition at 1 µM [%] | Structure (SMILES)
17 | 89 | 95 | COc1ccc(-c2nc(C(=O)Nc3cc4sc(N5CCOCC5)nc4nc3N3CCCCC3)co2)nc1 [Example 74, 2-(5-methoxypyridin-2-yl)-N-(2-morpholino-5-(piperidin-1-yl)thiazolo[4,5-b]pyridin-6-yl)oxazole-4-carboxamide]
18 | 95 | 96 | Nc1cc(-c2cccc(C(=O)Nc3cc4sc(N5CCOCC5)nc4nc3C3CC3)n2)ccn1 [Example 52, 2′-amino-N-(5-cyclopropyl-2-morpholinothiazolo[4,5-b]pyridin-6-yl)-[2,4′-bipyridine]-6-carboxamide]
19 | 87 | 92 | N[C@H]1CCN(c2cccc(C(=O)Nc3cc4sc(N5CCOCC5)nc4nc3N3CCCCC3)n2)C1 [Example 26, (S)-6-(3-aminopyrrolidin-1-yl)-N-(2-morpholino-5-(piperidin-1-yl)thiazolo[4,5-b]pyridin-6-yl)picolinamide]
20 | 50 | 92 | Cc1nc2nc(N3CCOCC3)sc2cc1NC(=O)c1cccc(N2CCC(O)C2)n1 (stereo not shown) [Example 43, 6-(3-hydroxypyrrolidin-1-yl)-N-(5-methyl-2-morpholinothiazolo[4,5-b]pyridin-6-yl)picolinamide]
21 | 96 | 98 | O=C(Nc1cc2sc(N3CCOCC3)nc2nc1C1CC1)c1cnn2ccc(N3CCC(O)CC3)nc12 [Example 101, N-(5-cyclopropyl-2-morpholinothiazolo[4,5-b]pyridin-6-yl)-5-(4-hydroxypiperidin-1-yl)pyrazolo[1,5-a]pyrimidine-3-carboxamide]
22 | 87 | 97 | Nc1ccc(-c2cccc(C(=O)Nc3cc4oc(N5CCOCC5)nc4nc3N3CC[C@@H](O)C3)n2)cn1 [Example 90, (R)-6′-amino-N-(5-(3-hydroxypyrrolidin-1-yl)-2-morpholinooxazolo[4,5-b]pyridin-6-yl)-[2,3′-bipyridine]-6-carboxamide hydrochloride]
23 | 89 | 96 | NC1CCN(c2ccn3ncc(C(=O)Nc4cc5sc(N6CCOCC6)nc5nc4C4CC4)c3n2)CC1 [Example 99, 5-(4-aminopiperidin-1-yl)-N-(5-cyclopropyl-2-morpholinothiazolo[4,5-b]pyridin-6-yl)pyrazolo[1,5-a]pyrimidine-3-carboxamide 2,2,2-trifluoroacetate]
24 | 97 | 98 | Cc1ccc(-c2nc3nc(N4CCOCC4)sc3cc2NC(=O)c2cnn3cccnc23)nc1 [Example 20, N-(5-(5-methylpyridin-2-yl)-2-morpholinothiazolo[4,5-b]pyridin-6-yl)pyrazolo[1,5-a]pyrimidine-3-carboxamide]
25 | 45 | 92 | Cc1cc(-c2ccc(C(=O)Nc3cc4oc(N5CCOCC5)nc4nc3N3CC[C@@H](O)C3)o2)ccn1 [Example 91, (R)-N-(5-(3-hydroxypyrrolidin-1-yl)-2-morpholinooxazolo[4,5-b]pyridin-6-yl)-5-(2-methylpyridin-4-yl)furan-2-carboxamide hydrochloride]
